Converted amounts (≈) assume the structure as drawn.
Experiments:
[1] = First stable form screening (amorphous Compound I in 19 solvents/mixtures at ambient conditions); format: physicochemical; conditions: for 2-Week solids / 24 h solids / solubility: amorphous start, ambient; for solubility: thermodynamic from solid
Experimental: The first stable form screening was conducted using 19 solvents/mixtures at ambient conditions. The starting material was amorphous. Anti-solvents, either water or heptane, were used to precipitate the solids.
Form I is a hydrate form obtained from ACN/water 50:50 mixture. Form II is an anhydrous form obtained from ACN. […] Solids in water and heptane were amorphous. Other samples remained as solutions.
It appears to be a solvated form. […] Solids in water and heptane remained amorphous. Other samples remained as solution.

[2] = Follow-up stable form screening (Form II stirred in solvents at about 22° C.); format: physicochemical; conditions: about 22° C., Form II start
Experimental: In the follow-up stable form screening experiments, the starting materials were Form II. The solids were stirring in the solvents list below at about 22° C. in 2 ml vials.

[3] = Desolvation screening (vacuum oven); format: physicochemical; conditions: heated to about 110~120° C. in a vacuum oven
Experimental: Another method of generating anhydrous forms is desolvation. In this study, the solvates and hydrates of Compound I were heated to about 110˜120° C. in a vacuum oven to desolvate.

[4] = Stable form competition study in ACN; format: physicochemical; conditions: ACN mother liquor
Experimental: To further verify the stability of Form II, competitive crystallization was conducted by adding Forms I through V into a high concentration solution of amorphous Compound I in ACN. […] The mother liquor obtained, which was saturated in terms of Form II, was used in another test in which other forms (Forms I, III, IV and V) were added.

[5] = dried at 70° C.
[6] = 2 Me-THF, init. conc. 77.4 mg/mL
[7] = Acetone, init. conc. 79.6 mg/mL
[8] = Heptane, init. conc. 12.7 mg/mL
[9] = Toluene, init. conc. 16.2 mg/mL

## 5-(3,3-dimethylbutyn-1-yl)-3-[(cis-4-hydroxy-4-{[(3S)-tetrahydrofuran-3-yloxy]methyl}cyclohexyl){[(1R)-4-methylcyclohex-3-en-1-yl]carbonyl}amino]thiophene-2-carboxylic acid hydrate and/or solvate [Form III]
[1]; EtOH/water slurry, after 2 weeks of stirring
  Form conversion in slurry: converted to Form IV
[1]; solids from EtOH/water, dried
  Form conversion upon drying: converted to Form IV

## CC1=CC[C@H](C(=O)N(c2cc(C#CC(C)(C)C)sc2C(=O)O)[C@H]2CC[C@](O)(CO[C@H]3CCOC3)CC2)CC1.CCC(C)=O (relative stereo) [Form X, 5-(3,3-dimethylbutyn-1-yl)-3-[(cis-4-hydroxy-4-{[(3S)-tetrahydrofuran-3-yloxy]methyl}cyclohexyl){[(1R)-4-methylcyclohex-3-en-1-yl]carbonyl}amino]thiophene-2-carboxylic acid methyl ethyl ketone]
[2]; MEK, value for Form X
  solubility: 127 mg/mL

## CC1=CC[C@H](C(=O)N(c2cc(C#CC(C)(C)C)sc2C(=O)O)C2CCC(O)(CO[C@H]3CCOC3)CC2)CC1.CCO (relative stereo) [Form IX, 5-(3,3-dimethylbutyn-1-yl)-3-[(cis-4-hydroxy-4-{[(3S)-tetrahydrofuran-3-yloxy]methyl}cyclohexyl){[(1R)-4-methylcyclohex-3-en-1-yl]carbonyl}amino]thiophene-2-carboxylic acid ethanol solvate]
[2]; EtOH, value for Form IX
  solubility: 283 mg/mL

## CC1=CC[C@H](C(=O)N(c2cc(C#CC(C)(C)C)sc2C(=O)O)[C@H]2CC[C@](O)(CO[C@H]3CCOC3)CC2)CC1 [Compound I, 5-(3,3-dimethylbutyn-1-yl)-3-[(cis-4-hydroxy-4-{[(3S)-tetrahydrofuran-3-yloxy]methyl}cyclohexyl){[(1R)-4-methylcyclohex-3-en-1-yl]carbonyl}amino]thiophene-2-carboxylic acid]
[1]; [6]
  2-Week solids: solution
  24 h solids: solution
[1]; [7]
  2-Week solids: solution
  24 h solids: solution
[1]; EtOAc, init. conc. 49.4 mg/mL
  2-Week solids: solution
  24 h solids: solution
[1]; EtOH, init. conc. 76 mg/mL
  2-Week solids: solution
  24 h solids: solution
[1]; [8]
  2-Week solids: amorphous
  24 h solids: amorphous
[1]; IPA/water, init. conc. 47.7 mg/mL
  24 h solids: solution
[1]; IPA, init. conc. 95.4 mg/mL
  2-Week solids: solution
  24 h solids: solution
[1]; IPAc, init. conc. 39.6 mg/mL
  2-Week solids: solution
  24 h solids: solution
[1]; MEK, init. conc. 65.6 mg/mL
  2-Week solids: solution
  24 h solids: solution
[1]; MIBK, init. conc. 60.2 mg/mL
  2-Week solids: solution
  24 h solids: solution
[1]; MTBE, init. conc. >45 mg/mL
  24 h solids: solution
[1]; MeCl2, init. conc. 36 mg/mL
  2-Week solids: solution
  24 h solids: solution
[1]; MeOH, init. conc. 87.4 mg/mL
  2-Week solids: solution
  24 h solids: solution
[1]; THF, init. conc. 53.4 mg/mL
  2-Week solids: solution
  24 h solids: solution
[1]; [9]
  2-Week solids: solution
  24 h solids: solution
[1]; Water, init. conc. 11 mg/mL
  2-Week solids: amorphous
  24 h solids: amorphous
[1]; aqueous with cosolvent or surfactant or cyclodextrin, ACN/water (50:50), solids I
  solubility: 0.23 mg/mL (≈ 0.423 mM)
[1]; aqueous with cosolvent or surfactant or cyclodextrin, EtOH/water, solids III then IV
  solubility: 14.5 mg/mL (≈ 26.7 mM)
[1]; aqueous with cosolvent or surfactant or cyclodextrin, IPA/water, 2-week solids V
  solubility: 1.78 mg/mL (≈ 3.27 mM)
[1]; organic solvent or mixture, 2 Me-THF, remained solution
  solubility: > 77.4 mg/mL
[1]; organic solvent or mixture, ACN, solids II
  solubility: 13 mg/mL (≈ 23.9 mM)
[1]; organic solvent or mixture, Acetone, remained solution
  solubility: > 79.6 mg/mL
[1]; organic solvent or mixture, EtOAc, remained solution
  solubility: > 49.4 mg/mL
[1]; organic solvent or mixture, EtOH, remained solution
  solubility: > 76 mg/mL
[1]; organic solvent or mixture, IPA, remained solution
  solubility: > 95.4 mg/mL
[1]; organic solvent or mixture, IPAc, remained solution
  solubility: > 39.6 mg/mL
[1]; organic solvent or mixture, MEK, remained solution
  solubility: > 65.6 mg/mL
[1]; organic solvent or mixture, MIBK, remained solution
  solubility: > 60.2 mg/mL
[1]; organic solvent or mixture, MTBE, 2-week solids V
  solubility: 316 mg/mL (≈ 581 mM)
[1]; organic solvent or mixture, MeCl2, remained solution
  solubility: > 36 mg/mL
[1]; organic solvent or mixture, MeOH, remained solution
  solubility: > 87.4 mg/mL
[1]; organic solvent or mixture, THF, remained solution
  solubility: > 53.4 mg/mL
[1]; organic solvent or mixture, Toluene, remained solution
  solubility: > 16.2 mg/mL

## CC1=CC[C@H](C(=O)N(c2cc(C#CC(C)(C)C)sc2C(=O)O)C2CCC(O)(CO[C@H]3CCOC3)CC2)CC1.O (relative stereo) [Form VIII, 5-(3,3-dimethylbutyn-1-yl)-3-[(cis-4-hydroxy-4-{[(3S)-tetrahydrofuran-3-yloxy]methyl}cyclohexyl){[(1R)-4-methylcyclohex-3-en-1-yl]carbonyl}amino]thiophene-2-carboxylic acid monohydrate]
[3]
  Final Form after desolvation: VIII

## 5-(3,3-dimethylbutyn-1-yl)-3-[(cis-4-hydroxy-4-{[(3S)-tetrahydrofuran-3-yloxy]methyl}cyclohexyl){[(1R)-4-methylcyclohex-3-en-1-yl]carbonyl}amino]thiophene-2-carboxylic acid solvate [Form V]
[3]
  Final Form after desolvation: Amorphous

## CC(C)O.CC1=CC[C@H](C(=O)N(c2cc(C#CC(C)(C)C)sc2C(=O)O)C2CCC(O)(CO[C@H]3CCOC3)CC2)CC1 (relative stereo) [Form VII, 5-(3,3-dimethylbutyn-1-yl)-3-[(cis-4-hydroxy-4-{[(3S)-tetrahydrofuran-3-yloxy]methyl}cyclohexyl){[(1R)-4-methylcyclohex-3-en-1-yl]carbonyl}amino]thiophene-2-carboxylic acid isopropyl alcohol solvate]
[2]; IPA, value for Form VII
  solubility: 266 mg/mL
[3]
  Final Form after desolvation: Amorphous

## CC1=CC[C@H](C(=O)N(c2cc(C#CC(C)(C)C)sc2C(=O)O)[C@H]2CC[C@](O)(CO[C@H]3CCOC3)CC2)CC1.O (relative stereo) [Form I, 5-(3,3-dimethylbutyn-1-yl)-3-[(cis-4-hydroxy-4-{[(3S)-tetrahydrofuran-3-yloxy]methyl}cyclohexyl){[(1R)-4-methylcyclohex-3-en-1-yl]carbonyl}amino]thiophene-2-carboxylic acid hydrate]
[2]; Water, value for Form I
  solubility: 0.25 mg/mL
[4]
  Behaviour of solids added to mother liquor saturated in Form II: dissolved quickly
[3]
  Final Form after desolvation: Amorphous
[5]
  Solid state after drying (XRPD): partially became amorphous

Source: US9409891B2, “Solid forms of an antiviral compound” (Gilead Sciences, Inc., priority 2012, dated 2016)
